According to patent publication US20110262502A1, “PULMONARY DELIVERY OF 17-HYDROXYPROGESTERONE CAPROATE (17-HPC)” (Prairie Pharmaceuticals LLC, priority 2010, published 2011):

Experiments:
[1] = test system: PHA-induced IL-2 production in PBMCs; assay: PHA-induced IL-2 production in PBMCs from healthy male smokers (no IL-2/IL-4 added), ELISA; assay type: cell-based, human; parameters: PR2005 IC50: unit not given here; settings: for mean IL-2: Table 1; for % inhibition of PHA stimulation of IL-2: Table 2
Procedure: PBMCs were isolated from human blood buffy coats provided by a regional blood center. Random buffy coat cells from male donors were a by-product of blood processed for clinical use and no details (i.e., personal identification and background) were provided except for tobacco use. […] PBMCs were separated using a porous high density polyethylene barrier (HISTOPAQUE from GEHealthcare Bio-Sciences AB (US). After centrifugation of blood samples in each tube (35 minutes at 800×g at room temperature, or RT), PBMCs were collected and washed twice with Hank's buffered saline solution (HBSS). PBMCs were resuspended in RPMI-1640 medium containing 10% fetal calf serum (FCS) and 15 mM glutamine and cells were counted and plated.
(§1) PBMCs (2×10^6) were incubated with or without IL-2 (13 ng/ml) and IL-4 (6.5 ng/ml) for 48 hours in RPMI-1640 medium containing 10% FCS and 2 mM glutamine. […] IL-2 and IL-4 stimulated PBMCs were also plated at a concentration of 10^6 cells/ml in 96-well plates ready for PHA (15 μg/mL, 24 hours) stimulation of cytokine release and detection by ELISA.
Serial dilutions of standards and PBMCs' supernatants were measured by enzyme linked immunosorbent assay to determine IL-2 at baseline and its levels after 17HPC, P4 and MAP treatments. Optical density was measured at 450 nm and corrected with 550 nm. The concentration of TL-2 was calculated using the standard curve and taking into account the supernatant dilution used. Detection limit for IL-2 is 4.0 pg/ml.
Data are expressed as mean±SD. The efficacies of the drug treatments were analyzed by paired t-test. One-way analysis of variance was used to compare three or more matched groups and 95% CI was performed to present groups differences. All graphs indicate mean values of results or % inhibition of PHA-stimulated IL-2. IC50 values were calculated by using a sigmoidal model (BioDataFit). A p value <0.05 was considered statistically significant.
(§2) IL-2 levels were quantified using ELISA.
IL-2 levels were quantified using ELISA. IC50 values were calculated by using a sigmoidal model (BioDataFit).
as §2, §2, §2

[2] = test system: PHA-induced IL-2 release in IL-2 and IL-4 treated (steroid resistant) PBMCs; assay: IL-2/IL-4 induced steroid resistance model in PBMCs: dexamethasone inhibition of PHA-induced IL-2 release; assay type: cell-based, human; settings: for PHA-induced IL-2 level: FIG. 5
Procedure: J Immunol 2009; 183; 164-171). […] Following PBMCs stimulation with mitogen phytohaemagglutinin (PHA), there is a strong correlation between cytokine secretion levels and steroid resistance as well as steroid sensitivity in vitro. Addition of IL-2, IL-4 and TNF-reduce steroid sensitivity.
as §1
IL-2/4 induced steroid resistance in PBMCs, a well-recognized study model, was used to evaluate potential modifiers of steroid resistance and sensitivity. PBMCs from healthy smokers were collected. Corticosteroid insensitivity or resistance was induced by adding IL-2 and IL-4 in peripheral blood mononuclear cells (PBMCs) from healthy male smokers (n=˜11). […] IL-2 levels were quantified using ELISA.
J Immunol 2009; 183; 164-171).
as §2

[3] = FIG. 4, high dose Dexamethasone 10^−6 M

CCCCCC(=O)O[C@]1(C(C)=O)CC[C@H]2[C@@H]3CCC4=CC(=O)CC[C@]4(C)[C@H]3CC[C@@]21C [17HPC, 17α-HYDROXYPROGESTERONE CAPROATE]
PR2005 IC50 ([1]; Dexamethasone 0): 6.434 | suppression of PHA induced IL-2 ([1]; FIG. 11, 17HPC add-on to Dexamethasone 10^−6 M): ~100% | improvements in Dexamethasone efficacy (synergetic effect of combination) ([1]; FIG. 12, 17HPC with Dexamethasone): 25-37% | mean IL-2 ([1]; 17HPC 10^−5M + Dexamethasone 10^−6M): 24.61 pg/mL | mean IL-2 ([1]; 17HPC 10^−5M + Dexamethasone 10^−8M): 136.2 pg/mL | mean IL-2 ([1]; 17HPC 10^−5M + Dexamethasone 10^−10M): 138.6 pg/mL | mean IL-2 ([1]; 17HPC 10^−5M + Dexamethasone 10^−12M): 176.2 pg/mL | mean IL-2 ([1]; 17HPC 10^−5M, Dexamethasone 0): 225.6 pg/mL | mean IL-2 ([1]; 17HPC 10^−7M + Dexamethasone 10^−6M): 9.914 pg/mL | mean IL-2 ([1]; 17HPC 10^−7M + Dexamethasone 10^−8M): 229.3 pg/mL | mean IL-2 ([1]; 17HPC 10^−7M + Dexamethasone 10^−10M): 104.5 pg/mL | mean IL-2 ([1]; 17HPC 10^−7M + Dexamethasone 10^−12M): 111.6 pg/mL | mean IL-2 ([1]; 17HPC 10^−7M, Dexamethasone 0): 466.3 pg/mL | mean IL-2 ([1]; 17HPC 10^−10M + Dexamethasone 10^−6M): 27.18 pg/mL | mean IL-2 ([1]; 17HPC 10^−10M + Dexamethasone 10^−8M): 173.5 pg/mL | mean IL-2 ([1]; 17HPC 10^−10M + Dexamethasone 10^−10M): 177.7 pg/mL | mean IL-2 ([1]; 17HPC 10^−10M + Dexamethasone 10^−12M): 132.3 pg/mL | mean IL-2 ([1]; 17HPC 10^−10M, Dexamethasone 0): 420.6 pg/mL | mean IL-2 ([1]; 17HPC 10^−11M + Dexamethasone 10^−6M): 9.05 pg/mL | mean IL-2 ([1]; 17HPC 10^−11M + Dexamethasone 10^−8M): 167.9 pg/mL | mean IL-2 ([1]; 17HPC 10^−11M + Dexamethasone 10^−10M): 164.4 pg/mL | mean IL-2 ([1]; 17HPC 10^−11M + Dexamethasone 10^−12M): 275.2 pg/mL | mean IL-2 ([1]; 17HPC 10^−11M, Dexamethasone 0): 448.2 pg/mL | % inhibition of PHA stimulation of IL-2 ([1]; 17HPC 10^−5 M + Dexamethasone 10^−6 M): 97% | % inhibition of PHA stimulation of IL-2 ([1]; 17HPC 10^−5 M + Dexamethasone 10^−8 M): 81% | % inhibition of PHA stimulation of IL-2 ([1]; 17HPC 10^−5 M + Dexamethasone 10^−10 M): 81% | % inhibition of PHA stimulation of IL-2 ([1]; 17HPC 10^−5 M + Dexamethasone 10^−12 M): 76% | % inhibition of PHA stimulation of IL-2 ([1]; 17HPC 10^−5 M, Dexamethasone 0 M): 69% | % inhibition of PHA stimulation of IL-2 ([1]; 17HPC 10^−7 M + Dexamethasone 10^−6 M): 99% | % inhibition of PHA stimulation of IL-2 ([1]; 17HPC 10^−7 M + Dexamethasone 10^−8 M): 69% | % inhibition of PHA stimulation of IL-2 ([1]; 17HPC 10^−7 M + Dexamethasone 10^−10 M): 86% | % inhibition of PHA stimulation of IL-2 ([1]; 17HPC 10^−7 M + Dexamethasone 10^−12 M): 85% | % inhibition of PHA stimulation of IL-2 ([1]; 17HPC 10^−7 M, Dexamethasone 0 M): 37% | % inhibition of PHA stimulation of IL-2 ([1]; 17HPC 10^−10 M + Dexamethasone 10^−6 M): 96% | % inhibition of PHA stimulation of IL-2 ([1]; 17HPC 10^−10 M + Dexamethasone 10^−8 M): 76% | % inhibition of PHA stimulation of IL-2 ([1]; 17HPC 10^−10 M + Dexamethasone 10^−10 M): 76% | % inhibition of PHA stimulation of IL-2 ([1]; 17HPC 10^−10 M + Dexamethasone 10^−12 M): 82% | % inhibition of PHA stimulation of IL-2 ([1]; 17HPC 10^−10 M, Dexamethasone 0 M): 43% | % inhibition of PHA stimulation of IL-2 ([1]; 17HPC 10^−11 M + Dexamethasone 10^−6 M): 99% | % inhibition of PHA stimulation of IL-2 ([1]; 17HPC 10^−11 M + Dexamethasone 10^−8 M): 77% | % inhibition of PHA stimulation of IL-2 ([1]; 17HPC 10^−11 M + Dexamethasone 10^−10 M): 78% | % inhibition of PHA stimulation of IL-2 ([1]; 17HPC 10^−11 M + Dexamethasone 10^−12 M): 63% | % inhibition of PHA stimulation of IL-2 ([1]; 17HPC 10^−11 M, Dexamethasone 0 M): 39% | IL-2 inhibition ([1]; add-on of low doses of 17HPC (10^−11 M or 10^−10 M) to lower Dexamethasone doses): ≥ 78% | effect in basal IL-2 level ([1]; no PHA stimulation, data not shown): no significant effect | PR2005 IC50 ([1]; with Dexamethasone 10^−8M): 6.243 | PR2005 IC50 ([1]; with Dexamethasone 10^−10M): 11.64 | PR2005 IC50 ([1]; with Dexamethasone 10^−12M): 10.92 | highest improvement rate in Imax [2, 3]: 18% | improvement rate in Imax at all dose levels [2, 3]: 16-18% | PHA-induced IL-2 level ([2]; Dexamethasone 10^−10 M + 17HPC 10^−5M): 1595 pg/mL | PHA-induced IL-2 level ([2]; Dexamethasone 10^−10 M + 17HPC 10^−7M): 1805 pg/mL | PHA-induced IL-2 level ([2]; Dexamethasone 10^−10 M + 17HPC 10^−10 M): 2119 pg/mL | subjects with more than 10% improvement in % maximal Dexamethasone inhibition ([2]; FIG. 6, Dexamethasone 10^−6 M): Ten out of 11
